Laboratory results reported in US20240000741A1, “ALL-TRANS RETINOIC ACID ENHANCES RADIOTHERAPY AND OVERCOMES IMMUNE SUPPRESSION FOR CANCER THERAPY” (The University of Chicago, priority 2022, published 2024).

Key:
MC38 cells = assay: Direct cytotoxic/radiosensitizing effect of RA on cultured tumor cells; type: cell-based, mouse; settings: RA 0 nM to 2000 nM after IR 0 Gy to 15 Gy, three days
Experimental: To determine whether RA has direct cytotoxic and/or radiosensitizing effects on tumor cells, MC38 cells were cultured with RA (0 nM to 2000 nM) after IR (0 Gy to 15 Gy) for three days. […] Since both IR and RA regulate immune responses, studies were conducted to examine how the combination treatment changes the tumor immune environment. Using a multiplex assay, the level of chemokines and cytokines in tumors three days after treatment was determined. Following IR+RA treatment, increased levels of CCL2, CCL3, CCL4 and CCL5 (by 2-fold to 3-fold compared to levels in any single treatment), which are involved in monocyte recruitment, were observed. GM-CSF, a critical cytokine for DC generation, increased by more than 5-fold in whole tumor homogenates.

[1] = tested on: chemokines and cytokines in tumors; assay: Multiplex cytokine/chemokine assay of tumor homogenates; type: in vivo, mouse
Experimental: (§1) Whole tumors were excised at indicated time point post treatment. Tumors were weighed and homogenized in PBS with the presence of protease inhibitor cocktails at a ratio of 1 ml per gram of tissue. 25 μl of supernatants were subjected to a bead-based cytokine and chemokine assay (a mouse inflammation panel and chemokine panel sold under the tradename LEGENDPLEX™ (BioLegend, San Diego, California, United States of America). The assays were analyzed using a LSRII flow cytometer and software sold under the tradename LEGENDPLEX™ (both from BioLegend, San Diego, California, United States of America). IFN-γ was measured using IFN-γ flex CBA set (BD Biosciences, Franklin Lakes, New Jersey, United States of America). TNF-α concentration was measured using ELISA kit from R&D Systems (MTA00B; Minneapolis, Minnesota, United States of America). For nitrite assay, equal weight of tumors were cut into pieces and cultured in DMEM medium for 2 hours. The production of NO in the supernatants was measured indirectly by measuring the concentration of nitrite by using the Griess reagent nitrite measurement kit (Cell Signaling Technology, Danvers, Massachusetts, United States of America; #13547).
To determine whether RA has direct cytotoxic and/or radiosensitizing effects on tumor cells, MC38 cells were cultured with RA (0 nM to 2000 nM) after IR (0 Gy to 15 Gy) for three days. […] Since both IR and RA regulate immune responses, studies were conducted to examine how the combination treatment changes the tumor immune environment. Using a multiplex assay, the level of chemokines and cytokines in tumors three days after treatment was determined.

nitrite (iNOS product) = assay: Nitrite assay of tumor fragments cultured ex vivo; type: in vivo, mouse; settings: IR+RA treated tumors, day 4, 2 hours culture
Experimental: as §1

[2] = tested on: bone marrow-derived DCs (BMDCs); assay: iNOS induction in bone marrow-derived dendritic cells in vitro; type: cell-based, mouse; settings: cultured in the presence of RA (200 μM)
Experimental: Femurs and tibias from 8- to 10-week-old mice were harvested. BMDCs were derived as described (40). The cultured BMDC were collected on day 6 for further experiments. For Inf-MAC induction in vitro, bone marrow cells were cocultured with the presence of 200 μM RA. On day 6, indicated amount of IFN-γ was added directly to the culture. Cells were stained for iNOS and TNF-α after 24-36 hours and analyzed using flow cytometry.

[3] = tested on: non-irradiated MC38 tumors; assay: MC38 two-tumor model, growth of non-irradiated tumors (abscopal effect); type: in vivo, mouse; settings: RA and IR treatment of primary tumor compared to any single treatment
Experimental: 1×10^6 MC38, B16/F1, Renca or CT26 cells were subcutaneously implanted into flanks of mice. Tumors were irradiated using a Phillips IR250 orthovoltage X-ray generator (Phillips, Amsterdam, the Netherlands) operating at 250 kV 15 mA. Subcutaneous local tumors were irradiated by shielding bodies with a cylindrical lead cover with only flank tumors exposed for radiation. ATRA (400 μg/mice/day) was administered by oral gavage for 10 days. For the two-tumor model, 1×10^6 and 0.7×10^6 MC38 cells were subcutaneously implanted into the right and left flank of mice respectively. For the tumor re-challenge assay, both the cured mice and the naive mice were re-challenged with 5×10^6 MC38 or 1×10^6 LLC cells respectively. Tumors were measured along two diameters (length and width) and depth twice weekly and volumes were calculated as length×width×depth/2. For CD8 and CD4 T cell depletion experiments, 200 μg antibodies were injected i.p. on day 0, 2, 5 and 8 after radiation. Anti-CD11b antibody was injected i.p. every two days starting 1 day before radiation. Anti-PD-L1 antibody was administered i.p. on day 0, 3, and 7 after radiation at 200 μg/mouse. Anti-IFN-γ was administered i.p. at 500 μg/mouse every 7 days. Anti-NK1.1 antibody was administered via i.p. at 25 μg/mouse every 3 days for 3 doses. Anti-GM-CSF antibody was given by i.p. injection at 250 μg/mouse every 2 days. […]

[4] = IR+RA compared to other treatments

CC1=C(/C=C/C(C)=C/C=C/C(C)=C/C(=O)O)C(C)(C)CCC1 [RA, all-trans retinoic acid]
tumor cell death in vitro (MC38 cells): no direct effects | IFN-β level in tumors [1, 4]: significantly elevated | IFN-γ level in tumors [1, 4]: significantly elevated | IL-1 level in tumors [1, 4]: significantly elevated | IL-6 level in tumors [1, 4]: significantly elevated | increase of GM-CSF in whole tumor homogenates ([1]; IR+RA, three days after treatment): more than 5 fold | CXCL9 level in tumors ([1]; radiation and RA treatment): elevated | CXCL10 level in tumors ([1]; radiation and RA treatment): elevated | nitrite level in culture media of tumors cultured ex vivo (nitrite (iNOS product)): 19.8 µM | iNOS production in BMDCs [2]: increased significantly | growth of non-irradiated tumors [3]: slower growth rate
